Measurements reported in US4705777A, “Cationic oligopeptides having microbicidal activity” (priority 1985, dated 1987).

Legend:
[1] = system: Streptococcus agalactiae Type-I-A; assay: Antibacterial activity of rabbit granulocyte peptides (Table III), S. agalactiae Type-I-A; format: cell-based; conditions: 50 μg/ml, 20 min; for Bactericidal activity log10 No /N, Streptococcus agalactiae Type 1A, pH 5.8: 10 mM phosphate buffer pH 5.8; for Bactericidal activity log10 No /N, Streptococcus agalactiae Type-I-A: 37° C., 10 mM sodium phosphate buffer pH 7.4; for Bactericidal activity log10 No /N, Streptococcus agalactiae Type 1A, "High" ionic strength: buffer pH 7.4 supplemented with 0.14 M NaCl
Protocol: (§1) The procedure parallels that reported in Lehrer et al., Infection and Immunity (1983) 42:10-14. […] The subculture was grown at 37° C. for 4 h with shaking to provide mid-logarithmic phase organisms that were washed twice with buffer by centrifugation (2000×g, 10 min), and then quantitated spectrophotometrically at 620 nm, with reference to previously established CFU/Optical Density relationships. Bacteria were suspended and experiments were performed in 10 mM sodium phosphate buffer, pH 7.4. In some experiments, buffers were supplemented with 0.14 M NaCl ("high" ionic strength). […] In some experiments, 10 mM phosphate buffer with a pH of 5.8 and conductivity of 1.36 mMHO was used. Peptide "stock solutions" were prepared at 500 μg/ml (microbiuret assay) in 0.01% acetic acid, and stored at -20° C. Typically, incubation mixtures contained 1×10^5 bacterial CFU and 5 μg of peptide in 100 μl of buffer. After incubation for 20 min at 37° C., 900 μl of the same buffer was added, and two additional serial tenfold dilutions were made with that buffer. Duplicate 100 μl aliquots from the three serial dilutions were spread over appropriate nutrient agar plates and incubated for 24-72 h to insure full colony development. Killing of microorganisms was expressed as the logarithm10 No /N, where No represented the initial colony count and N represented the colony count after incubation with peptide. There was no significant alteration in colony count when any of the test organisms were exposed to peptide-free buffer for 20 min.

[2] = system: Staphylococcus aureus 502A; assay: Antibacterial activity of rabbit granulocyte peptides (Table III), S. aureus 502A; format: cell-based; conditions: 50 μg/ml, 20 min, 37° C., 10 mM sodium phosphate buffer pH 7.4
Protocol: as §1

S. albus = assay: Antibacterial action, % killing (Table II), S. albus; format: cell-based, Staphylococcus albus; conditions: 50 μg/ml peptide, 10^7 bacterial cells/ml, 20 min, 37°
Protocol: (§2) To test antibacterial action of the polypeptides, the following protocol was employed. Various species at 10^7 bacterial cells/ml are incubated for 20 min at 37° with 50 μg/ml of the candidate peptide. Colony counts (viable organisms) are made at the outset of the incubation--beforeaddition of the candidate peptide--and after 20 min of incubation with the candidate peptide.

S. aureus 502A = assay: Antibacterial action, % killing (Table II), S. aureus 502A; format: cell-based, Staphylococcus aureus; conditions: 50 μg/ml peptide, 10^7 bacterial cells/ml, 20 min, 37°
Protocol: as §2

[3] = system: Staphylococcus aureus J.F.; assay: Antibacterial activity of rabbit granulocyte peptides (Table III), S. aureus J.F.; format: cell-based; conditions: 50 μg/ml, 20 min, 37° C., 10 mM sodium phosphate buffer pH 7.4
Protocol: as §1

[4] = system: Escherichia coli ATCC 29648; assay: Antibacterial activity of rabbit granulocyte peptides (Table III), E. coli; format: cell-based; conditions: 50 μg/ml, 20 min, 37° C., 10 mM sodium phosphate buffer pH 7.4
Protocol: as §1

Streptococcus Group B = assay: Antibacterial action, % killing (Table II), Streptococcus Group B; format: cell-based; conditions: 50 μg/ml peptide, 10^7 bacterial cells/ml, 20 min, 37°
Protocol: as §2

[5] = system: Staphylococcus aureus 566; assay: Antibacterial activity of rabbit granulocyte peptides (Table III), S. aureus 566; format: cell-based; conditions: 50 μg/ml, 20 min, 37° C., 10 mM sodium phosphate buffer pH 7.4
Protocol: as §1

L. monocytogenes = assay: Antibacterial action, % killing (Table II), L. monocytogenes; format: cell-based, Listeria monocytogenes; conditions: 50 μg/ml peptide, 10^7 bacterial cells/ml, 20 min, 37°
Protocol: as §2

[6] = system: Streptococcus agalactiae Type IIIU; assay: Antibacterial activity of rabbit granulocyte peptides (Table III), S. agalactiae Type IIIU; format: cell-based; conditions: 50 μg/ml, 20 min, 37° C., 10 mM sodium phosphate buffer pH 7.4
Protocol: as §1

[7] = system: Klebsiella pneumoniae ATCC 13883; assay: Antibacterial activity of rabbit granulocyte peptides (Table III), K. pneumoniae; format: cell-based; conditions: 50 μg/ml, 20 min; for Bactericidal activity log10 No /N, Klebsiella pneumoniae ATCC 13883, pH 5.8: 10 mM phosphate buffer pH 5.8; for Bactericidal activity log10 No /N, Klebsiella pneumoniae ATCC 13883: 37° C., 10 mM sodium phosphate buffer pH 7.4; for Bactericidal activity log10 No /N, Klebsiella pneumoniae ATCC 13883, "High" ionic strength: buffer pH 7.4 supplemented with 0.14 M NaCl
Protocol: as §1

[8] = system: Listeria monocytogenes 450; assay: Antibacterial activity of rabbit granulocyte peptides (Table III), L. monocytogenes; format: cell-based; conditions: 50 μg/ml, 20 min; for Bactericidal activity log10 No /N, Listeria monocytogenes 450, pH 5.8: 10 mM phosphate buffer pH 5.8; for Bactericidal activity log10 No /N, Listeria monocytogenes 450: 37° C., 10 mM sodium phosphate buffer pH 7.4; for Bactericidal activity log10 No /N, Listeria monocytogenes 450, "High" ionic strength: buffer pH 7.4 supplemented with 0.14 M NaCl
Protocol: as §1

Serratia marcescens = assay: Antibacterial activity of rabbit granulocyte peptides (Table III), S. marcescens; format: cell-based; conditions: 50 μg/ml, 20 min, 37° C., 10 mM sodium phosphate buffer pH 7.4
Protocol: as §1

[9] = system: Pseudomonas aeruginosa PAO 579; assay: Antibacterial activity of rabbit granulocyte peptides (Table III), P. aeruginosa; format: cell-based; conditions: 50 μg/ml, 20 min; for Bactericidal activity log10 No /N, Pseudomonas aeruginosa PAO 579, pH 5.8: 10 mM phosphate buffer pH 5.8; for Bactericidal activity log10 No /N, Pseudomonas aeruginosa PAO 579: 37° C., 10 mM sodium phosphate buffer pH 7.4; for Bactericidal activity log10 No /N, Pseudomonas aeruginosa PAO 579, "High" ionic strength: buffer pH 7.4 supplemented with 0.14 M NaCl
Protocol: as §1

[10] = system: Staphylococcus epidermidis UCLA-622; assay: Antibacterial activity of rabbit granulocyte peptides (Table III), S. epidermidis; format: cell-based; conditions: 50 μg/ml, 20 min, 37° C., 10 mM sodium phosphate buffer pH 7.4
Protocol: as §1

Ps. aeruginosa = assay: Antibacterial action, % killing (Table II), Ps. aeruginosa; format: cell-based, Pseudomonas aeruginosa; conditions: 50 μg/ml peptide, 10^7 bacterial cells/ml, 20 min, 37°
Protocol: as §2

E. coli = assay: Antibacterial action, % killing (Table II), E. coli; format: cell-based, Escherichia coli; conditions: 50 μg/ml peptide, 10^7 bacterial cells/ml, 20 min, 37°
Protocol: as §2

[11] = system: Bordetella bronchiseptica UCLA-342; assay: Antibacterial activity of rabbit granulocyte peptides (Table III), B. bronchiseptica; format: cell-based; conditions: 50 μg/ml, 20 min, 37° C., 10 mM sodium phosphate buffer pH 7.4
Protocol: as §1

[12] = system: Streptococcus pneumoniae Type III; assay: Antibacterial activity of rabbit granulocyte peptides (Table III), S. pneumoniae; format: cell-based; conditions: 50 μg/ml, 20 min, 37° C., 10 mM sodium phosphate buffer pH 7.4
Protocol: as §1

[13] = system: Hemophilus influenzae Type 3A; assay: Antibacterial activity of rabbit granulocyte peptides (Table III), H. influenzae; format: cell-based; conditions: 50 μg/ml, 20 min, 37° C., 10 mM sodium phosphate buffer pH 7.4
Protocol: as §1

S. marscescens = assay: Antibacterial action, % killing (Table II), S. marscescens; format: cell-based, Serratia marscescens; conditions: 50 μg/ml peptide, 10^7 bacterial cells/ml, 20 min, 37°
Protocol: as §2

H. influenzae = assay: Antibacterial action, % killing (Table II), H. influenzae; format: cell-based, Haemophilus influenzae; conditions: 50 μg/ml peptide, 10^7 bacterial cells/ml, 20 min, 37°
Protocol: as §2

K. pneumoniae = assay: Antibacterial action, % killing (Table II), K. pneumoniae; format: cell-based, Klebsiella pneumoniae; conditions: 50 μg/ml peptide, 10^7 bacterial cells/ml, 20 min, 37°
Protocol: as §2

Substance | Bactericidal activity log10 No /N, Streptococcus agalactiae Type 1A, pH 5.8 [1] [log10] | Bactericidal activity log10 No /N, Streptococcus agalactiae Type-I-A [1] [log10] | Bactericidal activity log10 No /N, Streptococcus agalactiae Type 1A, "High" ionic strength [1] [log10] | Bactericidal activity log10 No /N, Staphylococcus aureus 502A [2] [log10] | % Killing, S. albus (S. albus) | % Killing, S. aureus 502A (S. aureus 502A) | Bactericidal activity log10 No /N, Staphylococcus aureus J.F. [3] [log10] | Bactericidal activity log10 No /N, Escherichia coli ATCC 29648 [4] [log10] | Bactericidal activity log10 No /N, Staphylococcus aureus 566 [5] [log10] | % Killing, L. monocytogenes (L. monocytogenes) | Bactericidal activity log10 No /N, Streptococcus agalactiae Type IIIU [6] [log10] | Bactericidal activity log10 No /N, Klebsiella pneumoniae ATCC 13883, pH 5.8 [7] [log10] | Bactericidal activity log10 No /N, Klebsiella pneumoniae ATCC 13883 [7] [log10] | Bactericidal activity log10 No /N, Klebsiella pneumoniae ATCC 13883, "High" ionic strength [7] [log10] | Bactericidal activity log10 No /N, Listeria monocytogenes 450, pH 5.8 [8] [log10] | Bactericidal activity log10 No /N, Listeria monocytogenes 450 [8] [log10] | Bactericidal activity log10 No /N, Listeria monocytogenes 450, "High" ionic strength [8] [log10] | Bactericidal activity log10 No /N, Serratia marcescens (Serratia marcescens) [log10] | Bactericidal activity log10 No /N, Pseudomonas aeruginosa PAO 579, pH 5.8 [9] [log10] | Bactericidal activity log10 No /N, Pseudomonas aeruginosa PAO 579 [9] [log10] | also measured
val val cys ala cys arg arg ala leu cys leu pro leu glu arg arg ala gly phe cys arg ile arg gly arg ile his pro leu cys cys arg arg [NP-2] | 0.1 | 2.0 | 0.1 | 2.4 | B (90-99% killing) | D (<50% killing) | 2.9 | 0.8 | > 4.1 | A (>99% killing) | 2.9 | 0.5 | 1.1 | 0.0 | 0.1 | 2.1 | 0.2 | 1.0 | 0.2 | 3.2 | % Killing, Streptococcus Group B (Streptococcus Group B): C (50-90% killing); Bactericidal activity log10 No /N, Pseudomonas aeruginosa PAO 579, "High" ionic strength [9]: 0.0 log10; Bactericidal activity log10 No /N, Staphylococcus epidermidis UCLA-622 [10]: > 4.1 log10; % Killing, Ps. aeruginosa (Ps. aeruginosa): A (>99% killing); % Killing, E. coli (E. coli): B (90-99% killing); Bactericidal activity log10 No /N, Bordetella bronchiseptica UCLA-342 [11]: 0.1 log10; Bactericidal activity log10 No /N, Streptococcus pneumoniae Type III [12]: > 3.5 log10; Bactericidal activity log10 No /N, Hemophilus influenzae Type 3A [13]: 2.0 log10
gly ile cys ala cys arg arg arg phe cys pro asn ser glu arg phe ser gly tyr cys arg val asn gly ala arg tyr val arg cys cys ser arg arg [NP-3a] | 0.0 | 0.6 | 0.0 | 0.0 | D (<50% killing) | D (<50% killing) | 0.4 | 0.6 | 1.3 | D (<50% killing) | 0.3 | 0.4 | 2.4 | 0.0 | 0.0 | 0.2 | 0.1 | 0.5 | 0.1 | 3.2 | % Killing, S. marscescens (S. marscescens): C (50-90% killing); % Killing, H. influenzae (H. influenzae): B (90-99% killing); Bactericidal activity log10 No /N, Pseudomonas aeruginosa PAO 579, "High" ionic strength [9]: 0.1 log10; Bactericidal activity log10 No /N, Staphylococcus epidermidis UCLA-622 [10]: 1.3 log10; % Killing, Ps. aeruginosa (Ps. aeruginosa): A (>99% killing); % Killing, E. coli (E. coli): D (<50% killing); Bactericidal activity log10 No /N, Bordetella bronchiseptica UCLA-342 [11]: 0.1 log10; Bactericidal activity log10 No /N, Streptococcus pneumoniae Type III [12]: > 3.5 log10; Bactericidal activity log10 No /N, Hemophilus influenzae Type 3A [13]: > 1.1 log10; % Killing, K. pneumoniae (K. pneumoniae): A (>99% killing)
